Data on 60 molecules can be found in ChEMBL document CHEMBL1201862, “PubChem BioAssay data set” (2004).

What all share (experiment): DTP human tumour cell line panel, 48 h
The subject of assay [1] is MDA-N.
Assay [2] relates to BT-549.
Assay [3] has as its system SNB-78.
For assay [4], the system named is LXFL 529.
Assay [5] relates to DMS-273.
Assay [6] relates to DMS-114.
Assay [7] deals with HOP-18.
For assay [8], the system named is XF498.

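Exposure lasted 48 hours, with cells grown in 96-well plates and compounds tested at five concentrations. GI50: concentration for 50% inhibition of growth.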 Active and inactive are the calls of the source. No stated cut-off is given here; in the data, active = GI50 up to about 1.1 µM and inactive = higher.

One may read the GI50 as the concentration at which growth is held to half of that of the control. `Cc1ccc(S(=O)(=O)Nc2cc(O)nc3c2CCC3)cc1`: the GI50 in assay [1] and in assay [2] was > 100 µM (inactive) each time.
On to `C=CC(=O)N1C/C(=C\c2ccc(Cl)cc2)C(=O)/C(=C/c2ccc(Cl)cc2)C1`, for which the GI50 is 0.214 µM (active) in assay [1] and 0.329 µM (active) in assay [2].
On the same counts, the results for `COc1ccc(S(=O)(=O)N2C(=O)CCC2C(=O)NN)cc1` (centres undefined) are > 100 µM (inactive) and > 100 µM (inactive).
With `Cc1nc2c(nc1C)C(=O)c1cc(O)ccc1C2=O`, the GI50 is > 100 µM (inactive) in assay [3]; > 100 µM (inactive) in assay [4]; > 59 µM (inactive) in assay [5]; 37.2 µM (inactive) in assay [6]; > 100 µM (inactive) in assay [7].
With `CCCCNC(=S)Nn1c(-c2ccccc2)nc2ccccc2c1=O`, the GI50 was > 100 µM (inactive) in assay [4], > 100 µM (inactive) in assay [5], 87.3 µM (inactive) in assay [6] and > 100 µM (inactive) in assay [7].
Turning to `CC1=C(C(=O)OCc2ccncc2)C(C2=C(C)SCCS2)C(C(=O)OCc2ccncc2)=C(C)N1`, the results for the GI50 in assay [1] and in assay [2] were 30.5 µM (inactive) and 20.4 µM (inactive), respectively.
For `O=C(Nc1nc(C23CC4CC(CC(C4)C2)C3)cs1)c1cc2c(ccc3ccccc32)oc1=O` the same measures were > 100 µM (inactive) and > 100 µM (inactive).
With `COC(=O)CC(SCCO)SCCO`, the GI50 in assay [1] was > 100 µM (inactive).
`CCC(=O)N(O)C(C)(C)C`: the GI50 in assay [3], in assay [4] and in assay [6] was > 100 µM (inactive) in each case.
`COc1ccc(/C=C/C(=O)c2cc(C(C)(C)C)c(O)c(C(C)(C)C)c2)cc1OC`: the GI50 was 2.94 µM (inactive) in assay [1] and 5.24 µM (inactive) in assay [2].
As to `S=C1CC(c2ccc(Cl)cc2)Sc2ccccc2N1` (centres undefined), the GI50 was > 100 µM (inactive) in assay [1] and 21.1 µM (inactive) in assay [2].
Regarding `CN(C)C(=O)C(NCCO)c1ccccc1` (centres undefined), the GI50 in assay [1] and in assay [2] was > 100 µM (inactive) throughout.
Consider `O=C1C(/N=N/c2ccc(-c3nc4ccccc4o3)cc2)NC(=S)N1c1ccccc1` (centres undefined), for which the GI50 in assay [1] was 32.8 µM (inactive); in assay [2], > 100 µM (inactive).
As for `CCOC(=O)c1csc(C(CSCc2ccc(OC)cc2)N2C(=O)c3ccccc3C2=O)n1` (centres undefined), in assay [2], the GI50 is > 100 µM (inactive).
As to `CC[N+]1(C)CCC(O)(c2ccc(C)cc2)C(C(=O)c2ccc(C)cc2)C1` (centres undefined), the GI50 in assay [1] and in assay [2] was > 100 µM (inactive) in each case.
With `O=C(Nc1nnc(-c2c(Cl)c(Cl)c(Cl)c(Cl)c2-c2nc3cc(C(=O)c4ccccc4)ccc3[nH]2)o1)c1ccc(Cl)cc1`, the GI50 was 5.89 µM (inactive) in assay [1] and 41.9 µM (inactive) in assay [2].
In the case of `COc1cc(C2c3cc4c(cc3OC(N3CCOCC3)C2C)OCO4)ccc1O` (centres undefined), the GI50 in assay [1] is 1.76 µM (inactive); in assay [2] it was 10.3 µM (inactive).
For `O=C(N/N=C\c1c(O)ccc2ccccc12)c1ccncc1` the same measures were 1.33 µM (inactive) and 0.927 µM (active).
For the molecule `CCN(C(C)=O)c1cnc(/C=N/NC(N)=S)c2ccccc12`, the values for the GI50 in assay [1] and in assay [2] were 7.01 µM (inactive) and 5 µM (inactive), respectively.
For `CC(C)(C)c1cc(C2NC(=O)NC2=O)cc(C(C)(C)C)c1O` (centres undefined) the same measures were 47 µM (inactive) and > 100 µM (inactive).
For the molecule `COc1ccc2c(c1)[n+]([O-])c1cc(C#N)ccc1[n+]2[O-]`, the GI50 in assay [2] is 10.2 µM (inactive).
In the case of `COc1cccc2c1CCc1ccccc1CC2=O`, the GI50 in assay [8], in assay [4], in assay [5], in assay [6] and in assay [7] was > 100 µM (inactive) each time.
Regarding `C=C(Cl)C(C)(Cl)CCC(Cl)C(C)(C)Cl` (centres undefined), the values for the GI50 in assay [1] and in assay [2] were 44.2 µM (inactive) and > 100 µM (inactive), respectively.
On the same counts, the results for `CCn1ncc(Oc2c(Cl)cc(N)cc2Cl)c(Cl)c1=O` are 29.9 µM (inactive) and 25.6 µM (inactive).
`OC1(c2ccccc2)CC2CCC(C1)N2CCCC(O)(c1ccccc1)c1ccccc1` (centres undefined): the GI50 in assay [2] is 13 µM (inactive).
Turning to `CNNC1=NS(=O)(=O)c2cc(C#N)c(Cl)cc2S1`, the GI50 in assay [1] and in assay [2] was > 10 µM (inactive) in each case.
In the case of `O=c1[nH]c(=O)n(C2CC(O)C(CO)O2)c2nc3ccc4ccccc4c3nc12` (centres undefined), the GI50 in assay [1] is > 100 µM (inactive); in assay [2] it was 66.4 µM (inactive).
On the same counts, the results for `O=C1CCSCCC(=O)Nc2ccccc2N1` are > 100 µM (inactive) and > 100 µM (inactive).
With `N#CC(NCCc1ccccc1)c1ccc(C(C#N)NCCc2ccccc2)cc1` (centres undefined), the GI50 in assay [2] is 20.5 µM (inactive).
As to `CC(OC(C)(C)C)[C@H](NC(=O)OCc1ccccc1)C(=O)NC(OCc1ccccc1)[C@H]1COC(C)(C)O1` (some centres undefined), the GI50 in assay [1] and in assay [2] was > 10 µM (inactive) throughout.
On to `Cc1ccc2cccc(OC(=O)c3cc4c(cc3Cl)Sc3nccn3S4(=O)=O)c2n1`, for which the GI50 was 14.4 µM (inactive) in assay [1] and 17.4 µM (inactive) in assay [2].
As for `C#CC1(OC(C)=O)CCC2C3CC=C4C=C(OC(C)=O)CCC4(C)C3CCC21C` (centres undefined), in assay [2], the GI50 is 31.8 µM (inactive).
On to `C(=C(c1ccc(OC2CCCCO2)cc1)c1ccc(OC2CCCCO2)cc1)c1ccccc1` (centres undefined), for which the GI50 is 0.634 µM (active) in assay [1] and 0.543 µM (active) in assay [2].
On to `CSC1=C(C(=O)Nc2ccccc2)C(N)=NC1=O`, for which the GI50 in assay [1] and in assay [2] was > 100 µM (inactive) in each case.
For the molecule `N#C/C(=C/n1c(=S)[nH]c2ccccc21)C(N)=O`, the GI50 in assay [1] is > 100 µM (inactive).
For the molecule `O=C(O)C(SC1=NC(=O)C2(NN1)c1ccccc1-c1ccccc12)SC1=NC(=O)C2(NN1)c1ccccc1-c1ccccc12`, the GI50 in assay [1] and in assay [2] was > 10 µM (inactive) throughout.
As for `O=C(/C=C/c1ccc(O)c(O)c1)NC(CO)C(=O)O` (centres undefined), the GI50 in assay [1] and in assay [2] was > 100 µM (inactive) in each case.
`CNc1cccc2c1C(C)C[C@]1(C)C(=O)Nc3ccccc3[C@H]21` (some centres undefined): in assay [1], the GI50 is 26.6 µM (inactive).
Turning to `O=C(OCc1ccccc1)c1nc2ccccc2n1S(=O)(=O)c1ccccc1`, in assay [2], the GI50 is > 100 µM (inactive).
With `CSC1=C(c2ccc(Cl)cc2)SC(N2CCCCC2)N1c1ccc([N+](=O)[O-])cc1` (centres undefined), the results for the GI50 in assay [1] and in assay [2] were 39.4 µM (inactive) and 27.3 µM (inactive), respectively.
As to `COC(=O)/C=C(/OC)[C@H](C)[C@H](/C=C/c1csc(-c2csc(C(C)C)n2)n1)OC`, the GI50 in assay [2] is 4.8 µM (inactive).
For the molecule `Clc1ccc2c(Cl)ncnc2c1`, the GI50 in assay [8] and in assay [5] was > 100 µM (inactive) throughout.
Take `O=C1C=C(NCCOCCO)C(=O)c2c(O)ccc(O)c21`: the GI50 in assay [1] was 17.3 µM (inactive); in assay [2], > 100 µM (inactive).
`Cc1cccc(-c2nnc3s/c(=C\c4ccc(N(C)C)cc4)c(=O)n23)c1`: the GI50 in assay [8], in assay [3], in assay [4], in assay [5] and in assay [7] was > 100 µM (inactive) in each case.
For `CC[C@@]1(O)C(=O)OCc2c1cc1n(c2=O)Cc2c-1nc1ccccc1c2/C=N\NC(=O)C(N)Cc1c[nH]cn1` (some centres undefined), the GI50 in assay [1] was 1.9 µM (inactive); in assay [2], 3.45 µM (inactive).
On to `COc1cccc([C@@H]2C/C(=N\NC(=O)C(=O)N[C@@H](C)c3ccccc3)c3ccccc3N2)c1`, for which, in assay [1], the GI50 is 4.66 µM (inactive).
Consider `CSC1(C(=O)O)C2CCC3C2CCC31` (centres undefined), for which the GI50 in assay [1] and in assay [2] was > 100 µM (inactive) in each case.
In the case of `CCc1cccc(C(C)C)c1NC(=O)C(=O)C(Cc1nc2ccccc2nc1O)C(=O)OC` (centres undefined), the GI50 in assay [8] was > 100 µM (inactive); in assay [4] it was > 100 µM (inactive); in assay [5], 61.4 µM (inactive); in assay [6] it was 14.3 µM (inactive); in assay [7], > 100 µM (inactive).
For `COC(=O)/C(=N\N)C(C(=O)C(=O)Nc1cc(Cl)ccc1Cl)c1nc2ccc([N+](=O)[O-])cc2nc1O` (centres undefined), the GI50 in assay [1] and in assay [2] was > 100 µM (inactive) in each case.
`CCOP(=O)(OCC)/C(C#N)=C/c1c(C)[nH]c2ccccc12`: the GI50 in assay [1] and in assay [2] was > 100 µM (inactive) in each case.
On to `O=C(Oc1ccc2c(-c3ccccc3)c(C(=O)Nc3ccc(Cl)cc3)c(=O)oc2c1)c1ccccc1`, for which the GI50 in assay [8] is 58.1 µM (inactive); in assay [5], > 100 µM (inactive); in assay [6], 65.3 µM (inactive); in assay [7], > 100 µM (inactive).
With `Fc1ccc(-c2sc(-c3cccs3)cc2Cc2cccs2)cc1`, the GI50 in assay [2] is > 100 µM (inactive).
As for `C=CCn1c(=O)c2ccccc2[n+]2c(C)c(C(=O)OCC)sc12`, the GI50 in assay [1] and in assay [2] was > 100 µM (inactive) throughout.
For `Nc1nc2c(ncn2C2C=CC(COS(N)(=O)=O)C2)c(=O)[nH]1` (centres undefined), the GI50 in assay [1] was > 100 µM (inactive).
`COC1=CC(=O)[C@]2(C)[C@H](C1=O)C(C)[C@H]2c1ccc(OC)cc1` (some centres undefined): the GI50 in assay [8], in assay [3], in assay [4] and in assay [5] was > 100 µM (inactive) in each case.
Take `COc1cccc(/C=C\c2ccc(O)cc2)c1`: the GI50 in assay [1] was 21.1 µM (inactive); in assay [2], 17.5 µM (inactive).
With `C=C1C(=O)O[C@H]2C(=O)[C@H](C)CCC/C(C)=C/CC[C@@]3(C)O[C@@H]3C[C@@H]12`, the GI50 in assay [1] is 2.74 µM (inactive).
For `Nc1nc(O)c2[nH]nnc2n1` [8-AZAGUANINE], the GI50 in assay [3] was 1.02 µM (active); in assay [1], 0.308 µM (active); in assay [4], 16.3 µM (inactive); in assay [5], 0.634 µM (active); in assay [2], 0.473 µM (active); in assay [6], 6.5 µM (inactive). For the same molecule, the GI50 in assay [7] is 0.339 µM (active).
Take `COc1cc([C@@H]2c3cc4c(cc3C[C@H]3COC(=O)[C@@H]32)OCO4)cc2c1OCO2` [AUSTROBAILIGNAN 1]: the GI50 in assay [1] is < 0.01 µM (active).
As for `O[C@H]1[C@H]2c3cc4c(cc3CN3CCC(=C[C@@H]1O)[C@H]23)OCO4` [LYCORINE], the GI50 in assay [1] is 2.59 µM (inactive); in assay [2] it was 1.66 µM (inactive).
